# From patent publication US7135568B2, “Substituted pyrazolopyrimidines and thiazolopyrimidines” (Gruenenthal GmbH, priority 2001, dated 2006)
# Structures can show the parent of a compound that is named as a salt.
# Test system: (+)-MK801 binding site of the ionotropic NMDA receptor
# Assay: (3H)-(+)-MK801 receptor binding test on rat brain membrane homogenate
# Details: 10 μmole/l compound, 1 nmole/l (3H)-(+)-MK801, mean values of double determinations
# Procedure: The investigations to determine the NMDA antagonistic action of the compounds according to the invention were carried out on brain membrane homogenates (rat brain homogenate minus cerebellum, pons and medulla oblongata from male Wistar strain rats (Charles River, Sulzfeld, Germany)).
# For this, freshly prepared rat brains were digested, after removal of the cerebellum, pons and medulla oblongata, in 50 mmole/l Tris/HCl (pH 7.7) in a Polytron homogeniser (model PT3000, Kinematika AG, Littau, Switzerland) at 6,000 revs. per minute (rpm) for 1 minute while cooling in ice and then centrifuged for 15 minutes at 4° C. and 60,000 g. The supernatant was decanted and discarded, and the membrane pellet was taken up again in 50 mmole/l of Tris/HCl (pH 7.7) and digested in a homogeniser at 2,000 rpm for 1 minute and recentrifuged for 15 minutes at 4° C. and 60,000 g. The supernatant was discarded again and the membrane pellet was homogenised in 50 mmole/l Tris/HCl (pH 7.7) (2,000 rpm for 1 minute) and aliquot portions were frozen at −70° C.
# For the receptor binding test aliquots were in each case thawed out and then centrifuged for 15 minutes at 4° C. and 60,000 g. After decanting and discarding the supernatant, the membrane pellet for the binding test was taken up in binding test buffer and homogenised (2,000 rpm for 1 minute). 5 mmole/l Tris/HCl (pH 7.7) supplemented with 30 μmole/l of glycine and 100 μmole/l of glutamic acid was used as binding test buffer.
# 1 nmole/l of (^3H)-(+)-MK801 ((5R, 10S)-(+)-5-methyl-10,11-dihydro-5H-dibenzo(a,d)cyclohepten-5,10-imine (NET-972, NEN, Cologne, Germany) was added as radioactively labelled ligand. The proportion of non-specific binding was determined in the presence of 10 μmole/l of non-radioactively labelled (+)-MK801 (RBI/Sigma, Deisenhofen, Germany). In further assays the respective compounds according to the invention were added in concentration series and the displacement of the radioactive ligand from its specific binding to the NMDA receptor was measured.
# The batches were incubated in each case for 40 minutes at 25° C. and then harvested by filtration to determine the radioactive ligand bound to the brain membrane homogenate. The radioactivity retained by the filter was measured after adding a scintillator (“Ready Protein” scintillator, Beckmann Coulter GmbH, Krefeld, Germany) in a β-counter (Packard TR^1-CARB Liquid Scintillation Analyser 2000CA, Packard Instrument, Meriden, Conn. 06450, USA).
# The resulting percentage inhibition of the specific binding of the ligand (^3H)-(+)-MK801 in the presence of in each case 10 μmole/l of the respective compound according to the invention serves as a measure of the affinity of this compound for the (+)-MK801 binding site of the ionotropic NMDA receptor. The affinities are given in Table 2 as mean values of double determinations on selected examples.
row,Structure (SMILES),% Inhibition of the specific binding of the ligand (3H)-(+)-MK801
1,"OC1=NN2C(=NC(c3ccccn3)CC2c2ccccc2)C1N=Nc1ccccc1 (stereo not shown) [Example 140, 7-phenyl-3-phenylazo-5-pyridin-2-yl-3,5,6,7-tetrahydropyrazolo[1,5-a]pyrimidin-2-ol]",44%
2,"CCOC(=O)C1C=NN2C1=NC(c1ccccn1)CC2Sc1ccccc1 (stereo not shown) [Example 141, 7-phenylsulfanyl-5-pyridin-2-yl-3,5,6,7-tetrahydropyrazolo[1,5-a]pyrimidine-3-carboxylic acid ethyl ester]",45%
3,"OC1=NN2C(=NC(c3ccccn3)CC2Sc2ccccc2)C1N=Nc1ccccc1 (stereo not shown) [Example 142, 3-phenylazo-7-phenylsulfanyl-5-pyridin-2-yl-3,5,6,7-tetrahydropyrazolo[1,5-a]pyrimidin-2-ol]",75%
4,"BrC1C=NN2C1=NC(c1ccccn1)CC2Sc1ccccc1 (stereo not shown) [Example 143, 3-bromo-7-phenylsulfanyl-5-pyridin-2-yl-3,5,6,7-tetrahydropyrazolo[1,5-a]pyrimidine]",49%
5,"N#CC1C=NN2C1=NC(c1ccccn1)CC2Sc1ccccc1 (stereo not shown) [Example 144, 7-phenylsulfanyl-5-pyridin-2-yl-3,5,6,7-tetrahydropyrazolo[1,5-a]pyrimidine-3-carbonitrile]",45%

# Biological target: T1, nucleoside transport protein (Homo sapiens, UniProt Q99808)
# T1 construct: 100 μl of an aqueous suspension of erythrocyte membrane; from tissue; host or cells: erythrocyte membrane
# T1 sequence (Q99808 1-456): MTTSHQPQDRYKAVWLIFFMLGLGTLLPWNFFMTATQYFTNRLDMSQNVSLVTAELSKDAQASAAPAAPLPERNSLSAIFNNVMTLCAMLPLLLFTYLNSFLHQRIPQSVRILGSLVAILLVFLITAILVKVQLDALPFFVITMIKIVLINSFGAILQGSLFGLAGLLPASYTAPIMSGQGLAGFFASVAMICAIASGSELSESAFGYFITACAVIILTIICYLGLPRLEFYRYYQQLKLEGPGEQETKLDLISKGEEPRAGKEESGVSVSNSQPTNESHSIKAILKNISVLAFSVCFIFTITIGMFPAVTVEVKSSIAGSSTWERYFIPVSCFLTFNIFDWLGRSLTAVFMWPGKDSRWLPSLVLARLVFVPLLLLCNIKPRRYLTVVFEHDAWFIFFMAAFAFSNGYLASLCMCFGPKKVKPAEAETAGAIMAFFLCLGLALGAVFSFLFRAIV
# Assay: inhibition of the nucleoside transport protein ([3H]NBl displacement, erythrocyte membrane)
# Type: binding
# Details: 1.5 nM [3H]NBl, 30 minutes at 25° C.
# Procedure: The following test conditions were chosen for the determination of the inhibition of the nucleoside transport protein:
# 100 μl of the substance solution in aqueous solution with DMSO as solution aid were incubated for 30 minutes at 25° C. with 100 μl of 1.5 nM [^3H]NBl ([…]), 100 μl of buffer (50 mM Tris.HCl, pH 7.4) and 100 μl of an aqueous suspension of erythrocyte membrane. After the incubation the test mixture was filtered off (Whatman GF/C Filter, post-washed with 50 mM Tris.HCl). The filters were transferred to test tubes, 3.5 ml of scintillation fluid were added, and after 2 hours the radioactivity was measured in a β-counter.
row,Structure (SMILES),Ki
1,"COc1ccc(C2CC(c3ccc([N+](=O)[O-])s3)Nc3c(N=Nc4ccccc4)c(O)nn32)cc1OC (stereo not shown) [Example 53, 7-(3,4-dimethoxyphenyl)-5-(5-nitrothiophen-2-yl)-3-phenylazotetrahydropyrazolo[1,5-a]pyrimidin-2-ol]",600 nM
2,"COc1ccc(C2CC(c3ccc([N+](=O)[O-])s3)Nc3c(Br)c(-c4ccccc4)nn32)cc1OC (stereo not shown) [Example 54, 3-bromo-7-(3,4-dimethoxyphenyl)-5-(5-nitrothiophen-2-yl)-2-phenyltetrahydropyrazolo[1,5-a]pyrimidine]",1300 nM
3,"COc1ccc(C2CC(c3ccc([N+](=O)[O-])s3)Nc3c(C#N)c(SC)nn32)cc1OC (stereo not shown) [Example 55, 7-(3,4-dimethoxyphenyl)-2-methylsulfanyl-5-(5-nitrothiophen-2-yl)-tetrahydropyrazolo[1,5-a]pyrimidine-3-carbonitrile]",400 nM
4,"COc1ccc(C2CC(C(=O)c3ccccc3)Nc3c(C#N)c(SC)nn32)cc1OC (stereo not shown) [Example 64, 5-benzoyl-7-(3,4-dimethoxyphenyl)-2-methylsulfanyltetrahydropyrazolo[1,5-a]pyrimidine-3-carbonitrile]",600 nM
5,"COc1ccc(C2CC(CCc3ccccc3)Nc3c(C#N)c(SC)nn32)cc1OC (stereo not shown) [Example 111, 7-(3,4-dimethoxyphenyl)-2-methylsulfanyl-5-phenethyl-tetrahydropyrazolo[1,5-a]pyrimidine-3-carbonitrile]",300 nM
6,"COc1ccc(C2CC(c3ccccn3)Nc3c(Br)c(-c4ccccc4)nn32)cc1OC (stereo not shown) [Example 145, 3-bromo-7-(3,4-dimethoxyphenyl)-2-phenyl-5-pyridin-2-yl-4,5,6,7-tetrahydropyrazolo[1,5-a]pyrimidine dihydrochloride]",400 nM

# Same assay, conditions: 10 μM compound, 1.5 nM [3H]NBl
row,Structure (SMILES),% Displacement at 10 μM
1,"COc1ccc(C2CC(c3ccc([N+](=O)[O-])o3)Nc3c(Br)c(-c4ccccc4)nn32)cc1OC (stereo not shown) [Example 39, 3-bromo-7-(3,4-dimethoxyphenyl)-5-(5-nitrofuran-2-yl)-2-phenyl-tetrahydropyrazolo[1,5-a]pyrimidine]",40%
2,"COc1ccc(C2CC(c3ccc([N+](=O)[O-])s3)Nc3c(C#N)cnn32)cc1OC (stereo not shown) [Example 56, 7-(3,4-dimethoxyphenyl)-5-(5-nitrothiophen-2-yl)-tetrahydropyrazolo[1,5-a]pyrimidine-3-carbonitrile]",43%
3,"COc1ccc(C2CC(c3ccc([N+](=O)[O-])o3)Nc3c(C#N)c(SC)nn32)cc1OC (stereo not shown) [Example 153, 7-(3,4-dimethoxyphenyl)-2-methylsulfanyl-5-(5-nitrofuran-2-yl) tetrahydropyrazolo[1,5-a]pyrimidine-3-carbonitrile]",50%
4,"CCOC(=O)c1cnn2c1NC(c1ccccn1)CC2c1ccc(OC)c(OC)c1 (stereo not shown) [Example 154, 7-(3,4-dimethoxyphenyl)-5-pyridin-2-yl-4,5,6,7-tetrahydropyrazolo[1,5-a]pyrimidine-3-carboxylic acid ethyl ester]",41%

# Biological target: T2, recombinant human adenosine A3 receptor (Homo sapiens, UniProt P0DMS8)
# T2 construct: expressed in transfected cells
# T2 sequence (P0DMS8 1-318): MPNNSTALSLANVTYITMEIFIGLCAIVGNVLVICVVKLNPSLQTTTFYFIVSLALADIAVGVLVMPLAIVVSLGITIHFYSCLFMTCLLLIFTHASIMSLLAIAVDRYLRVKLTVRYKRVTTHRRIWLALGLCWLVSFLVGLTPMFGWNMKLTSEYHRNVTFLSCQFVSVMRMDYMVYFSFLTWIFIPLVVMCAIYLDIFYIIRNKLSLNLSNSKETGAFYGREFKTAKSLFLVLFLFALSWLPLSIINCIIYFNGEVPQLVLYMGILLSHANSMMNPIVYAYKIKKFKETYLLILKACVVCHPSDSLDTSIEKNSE
# Assay: adenosine A3 receptor displacement assay with [125I]AB-MECA
# Type: binding
# Details: compound concentration 3 μM; ligand 0.1 nM [125I]AB-MECA
# Procedure: The dihydrochloride of Example 147 (prepared from Example 147 in a similar manner to Examples 145 and 152) was investigated as regards its affinity for the recombinant human adenosine A3 receptor in a displacement assay (C. A. Salvatore et al., Process. Natl. Acad. Sci. USA (1993), Vol. 90, 10365–10369). At a ligand concentration of 0.1 nM [^125I]AB-MECA (N^6-(4-amino-3-[^125I]iodobenzyladenosine) the displacement at a concentration of 3 μM was 93%.
row,Structure (SMILES),displacement
1,"COc1ccc(C2CC(c3ccccn3)Nc3c(Br)c(-c4ccccc4)nn32)cc1OC (stereo not shown) [dihydrochloride of Example 147, 3-bromo-7-(3,4-dimethoxyphenyl)-2-phenyl-5-pyridin-2-yl-tetrahydropyrazolo[1,5-a]pyrimidine]",93%
